In patent US20170096402A1, “5-(HETERO)ARYLPYRIDAZINONES AND THEIR USE AS HERBICIDES” (BAYER CROPSCIENCE AKTIENGESELLSCHAFT, priority 2014, published 2017) one finds damage in wheat data, which are given here for six compounds.

One data set concerns wheat. The experiment in a line: Pre-emergence method, damage to crop plants. Type of data set: in vivo. The text has this: Seeds of monocotyledonous and dicotyledonous weed plants and crop plants are laid out in wood-fiber pots in sandy loam and covered with soil. The compounds of the invention, formulated in the form of wettable powders (WP) or as emulsion concentrates (EC), are then applied to the surface of the covering soil in the form of an aqueous suspension or emulsion at a water application rate equating to 600 to 800 I/ha, with addition of 0.2% wetting agent. After the treatment, the pots are placed in a greenhouse and kept under good growth conditions for the trial plants. The damage to the test plants is scored visually after a test period of 3 weeks by comparison with untreated controls (herbicidal activity in percent (%): 100% activity=the plants have died, 0% activity=like control plants).

Data set [1] has as its system Triticum aestivum (wheat). The experiment in a line: Post-emergence method, damage to crop plants (also comparative experiments, TRZAS). The class given is in vivo. As to the method: Seeds of monocotyledonous and dicotyledonous weed and crop plants are laid out in sandy loam in wood-fiber pots, covered with soil and cultivated in a greenhouse under good growth conditions. 2 to 3 weeks after sowing, the test plants are treated at the one-leaf stage. The compounds of the invention, formulated in the form of wettable powders (WP) or as emulsion concentrates (EC), are then sprayed onto the green parts of the plants in the form of an aqueous suspension or emulsion at a water application rate equating to 600 to 800 I/ha, with addition of 0.2% wetting agent. After the test plants have been left to stand in the greenhouse under optimal growth conditions for about 3 weeks, the action of the preparations is assessed visually in comparison to untreated controls (herbicidal action in percent (%): 100% activity=the plants have died, 0% activity=like control plants).

The mark [2] stands for this setting: pre-emergence, 320 g per hectare, 3 weeks.
The mark [3] stands for this setting: post-emergence, 20 g per hectare, about 3 weeks.

Regarding `Cc1c(-c2cnn(C)c(=O)c2O)ccc(C(F)(F)F)c1SCC1CC1` [1-553], the damage in wheat result (in the data set on wheat (setting [2]); in data set [1] (setting [3])) was “no damage” in each case.
As to `Cc1c(-c2cnn(C)c(=O)c2O)ccc(C(F)(F)F)c1[S+]([O-])CC1CC1` (centres unmarked) [1-554], the damage in wheat result in data set [1] (setting [3]) is reported as “no damage”.
With `Cc1c(-c2cnn(C)c(=O)c2O)ccc(C(F)(F)F)c1S(=O)(=O)CC1CC1` [1-555, 5-{3-[(cyclopropylmethyl)sulfonyl]-2-methyl-4-(trifluoromethyl)phenyl}-4-hydroxy-2-methylpyridazin-3(2H)-one], the damage in wheat result (in the data set with wheat (in vivo); in data set [1] (in vivo)) was “no damage” in each case.
Consider `COCCSc1c(C(F)(F)F)ccc(-c2cnn(C)c(=O)c2O)c1C` [1-1069], for which the damage in wheat result (in the data set with wheat (setting [2]); in data set [1] (setting [3])) was “no damage” in each case.
As for `COCC[S+]([O-])c1c(C(F)(F)F)ccc(-c2cnn(C)c(=O)c2O)c1C` (centres unmarked) [1-1070], the damage in wheat entry (with wheat (setting [2]); in data set [1] (setting [3])) was “no damage” each time.
As for `COCCS(=O)(=O)c1c(C(F)(F)F)ccc(-c2cnn(C)c(=O)c2O)c1C` [1-1071], the damage in wheat entry (in the data set on wheat (setting [2]); in data set [1] (setting [3])) was “no damage” each time.
